Measured values taken from patent publication US20240116877A1, “KIT KINASE INHIBITORS AND METHODS OF USE THEREOF” (Deciphera Pharmaceuticals, LLC, priority 2021, published 2024).
Read-outs that look alike come from different tables or passages of the source.

Legend:
[1] = test system: Ba/F3 KIT mutant cells; test: Ba/F3 mutant KIT Cell Proliferation Assays (resazurin); assay type: cell-based; details: Mus musculus, BaF3
Outline: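 IC50 values come from resazurin fluorescence (ex 540, em 600) after 5 h dye exposure, added as a 440 μM solution. Cells were IL-3-independent Ba/F3 expressing mutant KIT from a lentiviral vector, puromycin-selected.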

[2] = target: c-KIT kinase (uKIT) (Homo sapiens (Human), UniProt P10721); test: Biochemical Assay for uKIT (coupled pyruvate kinase/lactate dehydrogenase assay); details: Inhibition of biochemical activity of uKIT kinase; 1 mM ATP
c-KIT kinase (uKIT), sequence (P10721 other isoform, or with tags, fused parts or gaps): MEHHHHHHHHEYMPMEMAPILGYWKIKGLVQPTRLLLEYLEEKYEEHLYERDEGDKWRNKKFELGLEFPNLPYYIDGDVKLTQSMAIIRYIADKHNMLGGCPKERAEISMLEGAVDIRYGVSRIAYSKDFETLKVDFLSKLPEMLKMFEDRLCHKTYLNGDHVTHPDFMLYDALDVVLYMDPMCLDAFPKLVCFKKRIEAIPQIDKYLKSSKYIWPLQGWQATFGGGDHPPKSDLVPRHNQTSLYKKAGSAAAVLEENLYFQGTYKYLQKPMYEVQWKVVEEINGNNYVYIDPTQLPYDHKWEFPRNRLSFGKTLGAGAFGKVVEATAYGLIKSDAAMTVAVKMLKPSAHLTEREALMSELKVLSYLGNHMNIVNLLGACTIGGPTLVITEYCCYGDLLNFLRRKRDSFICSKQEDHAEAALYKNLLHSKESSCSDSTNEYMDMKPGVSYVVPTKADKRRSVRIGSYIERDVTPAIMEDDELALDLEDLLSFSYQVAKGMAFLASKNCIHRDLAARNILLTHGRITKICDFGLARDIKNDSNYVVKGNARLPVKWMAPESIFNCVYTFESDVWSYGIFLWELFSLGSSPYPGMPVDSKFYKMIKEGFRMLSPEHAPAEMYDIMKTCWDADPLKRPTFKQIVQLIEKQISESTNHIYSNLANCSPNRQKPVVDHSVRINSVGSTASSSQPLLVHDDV
Outline: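 Continuous coupled PK/LDH assay following NADH oxidation at 340 nm for 6 h at 30° C, with 16 nM or 4.36 nM KIT (two constructs), 0.7 mg/mL PE4Y, 1 mM ATP, pH 7.5. Rates from the 2-3 h window converted to percent inhibition versus controls; IC50 fitted.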

[3] = test system: GIST 430 cells; test: GIST 430 Cell Proliferation Assay (resazurin); assay type: cell-based; details: Homo sapiens; GIST430 cell proliferation
Outline: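 Five thousand cells per well were exposed to serially diluted compound in complete growth medium for 115 h at 37 degrees Celsius, 5% CO2. Resazurin was then added for a further 5 h, fluorescence read at 540 nm excitation/600 nm emission, and IC50 values calculated.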

[4] = Ba/F3 KIT AYdup-V654A mutant cell proliferation, read-out: AYdup-V654A IC50
[5] = Ba/F3 KIT exon11del-V654A mutant cell proliferation, read-out: exon11del-V654A IC50
[6] = Ba/F3 KIT exon11del-Y823D mutant cell proliferation, read-out: exon11del-Y823D IC50
[7] = Ba/F3 KIT AYdup mutant cell proliferation, read-out: AYdup IC50
[8] = Ba/F3 KIT AYdup-D816G mutant cell proliferation, read-out: AYdup-D816G IC50

Compound: CC(C)(F)CCNC(=O)Nc1ccc(Nc2ncnc3cc(OCC4CCOCC4)cc(F)c23)cc1 [Example 123]
- IC50 [1, 4]: 0.01 to 0.1 µM
- IC50 [1, 5]: ≤ 0.01 µM
- IC50 [1, 6]: 0.01 to 0.1 µM
- IC50 [2]: ≤ 0.01 µM
- IC50 [3]: 0.01 to 0.1 µM

Compound: COCCOc1cc(F)c2c(Nc3ccc(NC(=O)CC(=O)NC(C)(C)C)cc3)ncnc2c1 [Example 124]
- IC50 [1, 4]: 0.01 to 0.1 µM
- IC50 [1, 5]: 0.01 to 0.1 µM
- IC50 [1, 6]: 0.1 to 1 µM
- IC50 [2]: 0.01 to 0.1 µM
- IC50 [3]: 0.01 to 0.1 µM

Compound: COCCOc1cc(F)c2c(Nc3ccc(NC(=O)C(=O)NCCC(C)(C)C)cc3)ncnc2c1 [Example 125]
- IC50 [1, 4]: 0.01 to 0.1 µM
- IC50 [1, 5]: 0.01 to 0.1 µM
- IC50 [2]: 0.01 to 0.1 µM
- IC50 [3]: 0.01 to 0.1 µM

Compound: COCCOc1cc(F)c2c(Nc3ccc(NC(=O)C(=O)NCC(C)(C)C)cc3)ncnc2c1 [Example 126]
- IC50 [1, 4]: 0.1 to 1 µM
- IC50 [1, 5]: 0.1 to 1 µM
- IC50 [1, 6]: > 1 µM
- IC50 [2]: 0.1 to 1 µM
- IC50 [3]: 0.1 to 1 µM

Compound: COCCOc1cc(F)c2c(Nc3ccc(NC(=O)CC(=O)NCC(F)(F)F)cc3)ncnc2c1 [Example 127]
- IC50 [1, 4]: 0.01 to 0.1 µM
- IC50 [1, 5]: 0.01 to 0.1 µM
- IC50 [1, 6]: > 1 µM
- IC50 [2]: 0.01 to 0.1 µM
- IC50 [3]: 0.01 to 0.1 µM

Compound: COCCOc1cc(F)c2c(Nc3ccc(NC(=O)CC(=O)NC4(C(C)C)CC4)cc3)ncnc2c1 [Example 128]
- IC50 [1, 4]: 0.01 to 0.1 µM
- IC50 [1, 5]: ≤ 0.01 µM
- IC50 [1, 6]: 0.1 to 1 µM
- IC50 [2]: 0.01 to 0.1 µM
- IC50 [3]: 0.01 to 0.1 µM

Compound: COCCOc1cc(F)c2c(Nc3ccc(NC(=O)CC(=O)NC4(C(F)(F)F)CC4)cc3)ncnc2c1 [Example 129]
- IC50 [1, 4]: 0.01 to 0.1 µM
- IC50 [1, 5]: ≤ 0.01 µM
- IC50 [1, 6]: > 1 µM
- IC50 [2]: 0.01 to 0.1 µM
- IC50 [3]: 0.01 to 0.1 µM

Compound: COCCOc1cc(F)c2c(Nc3ccc(NC(=O)CC(=O)NC(C)(C)C(F)(F)F)cc3)ncnc2c1 [Example 130]
- IC50 [1, 7]: ≤ 0.01 µM
- IC50 [1, 8]: 0.01 to 0.1 µM
- IC50 [1, 4]: 0.01 to 0.1 µM
- IC50 [1, 5]: ≤ 0.01 µM
- IC50 [1, 6]: 0.01 to 0.1 µM
- IC50 [2]: 0.01 to 0.1 µM
- IC50 [3]: 0.01 to 0.1 µM

Compound: COCCOc1cc(F)c2c(Nc3ccc(NC(=O)CC(=O)NC(C)(C)C4CC4)cc3)ncnc2c1 [Example 131]
- IC50 [1, 7]: ≤ 0.01 µM
- IC50 [1, 8]: 0.01 to 0.1 µM
- IC50 [1, 4]: 0.01 to 0.1 µM
- IC50 [1, 5]: ≤ 0.01 µM
- IC50 [1, 6]: 0.01 to 0.1 µM
- IC50 [2]: 0.01 to 0.1 µM
- IC50 [3]: 0.01 to 0.1 µM

Compound: COCCOc1cc(F)c2c(Nc3ccc(NC(=O)CC(=O)NCC4(C)COC4)cc3)ncnc2c1 [Example 132]
- IC50 [1, 4]: 0.1 to 1 µM
- IC50 [1, 5]: 0.01 to 0.1 µM
- IC50 [2]: 0.01 to 0.1 µM
- IC50 [3]: 0.1 to 1 µM

Compound: COCCOc1cc(F)c2c(Nc3ccc(NC(=O)NCC=C(C)C)cc3)ncnc2c1 [Example 133]
- IC50 [1, 4]: ≤ 0.01 µM
- IC50 [1, 5]: ≤ 0.01 µM
- IC50 [1, 6]: 0.01 to 0.1 µM
- IC50 [2]: ≤ 0.01 µM
- IC50 [3]: 0.01 to 0.1 µM

Compound: COCCOc1cc(F)c2c(Nc3ccc(NC(=O)CC(=O)NC4CC5(CCC5)C4)cc3)ncnc2c1 [Example 135]
- IC50 [1, 4]: ≤ 0.01 µM
- IC50 [1, 5]: ≤ 0.01 µM
- IC50 [1, 6]: 0.01 to 0.1 µM
- IC50 [2]: ≤ 0.01 µM
- IC50 [3]: ≤ 0.01 µM

Compound: COCCOc1cc(F)c2c(Nc3ccc(NC(=O)CC(=O)NCC4CC(C)(C)C4)cc3)ncnc2c1 [Example 136]
- IC50 [1, 4]: 0.01 to 0.1 µM
- IC50 [1, 5]: ≤ 0.01 µM
- IC50 [1, 6]: 0.1 to 1 µM
- IC50 [2]: 0.01 to 0.1 µM
- IC50 [3]: 0.01 to 0.1 µM

Compound: COCCOc1cc(F)c2c(Nc3ccc(NC(=O)NC(=O)CC4(C(F)(F)F)COC4)cc3)ncnc2c1 [Example 137]
- IC50 [1, 4]: 0.01 to 0.1 µM
- IC50 [1, 5]: 0.01 to 0.1 µM
- IC50 [1, 6]: > 1 µM
- IC50 [2]: 0.01 to 0.1 µM
- IC50 [3]: 0.01 to 0.1 µM

Compound: CC(C)(F)CCNC(=O)Nc1ccc(Nc2ncnc3cc(OC4CCOCC4)cc(F)c23)cc1 [Example 138]
- IC50 [1, 7]: ≤ 0.01 µM
- IC50 [1, 8]: 0.01 to 0.1 µM
- IC50 [1, 4]: 0.01 to 0.1 µM
- IC50 [1, 5]: ≤ 0.01 µM
- IC50 [1, 6]: 0.1 to 1 µM
- IC50 [2]: ≤ 0.01 µM
- IC50 [3]: 0.01 to 0.1 µM

Compound: COCCOc1cc(F)c2c(Nc3ccc(NC(=O)CC(=O)N4CC(C)(C)C4)cc3)ncnc2c1 [Example 139]
- IC50 [1, 7]: ≤ 0.01 µM
- IC50 [1, 8]: 0.01 to 0.1 µM
- IC50 [1, 4]: 0.01 to 0.1 µM
- IC50 [1, 5]: ≤ 0.01 µM
- IC50 [1, 6]: > 1 µM
- IC50 [2]: 0.01 to 0.1 µM
- IC50 [3]: 0.01 to 0.1 µM

Compound: COCCOc1cc(F)c2c(Nc3ccc(NC(=O)CC(=O)N4CCCC4(C)C)cc3)ncnc2c1 [Example 140]
- IC50 [1, 4]: 0.01 to 0.1 µM
- IC50 [1, 5]: 0.01 to 0.1 µM
- IC50 [1, 6]: 0.1 to 1 µM
- IC50 [2]: 0.01 to 0.1 µM
- IC50 [3]: 0.01 to 0.1 µM

Compound: COCCOc1cc(F)c2c(Nc3ccc(NC(=O)CC(=O)N4CCC(C)(C)C4)cc3)ncnc2c1 [Example 141]
- IC50 [1, 7]: ≤ 0.01 µM
- IC50 [1, 8]: 0.01 to 0.1 µM
- IC50 [1, 4]: 0.01 to 0.1 µM
- IC50 [1, 5]: ≤ 0.01 µM
- IC50 [1, 6]: 0.01 to 0.1 µM
- IC50 [2]: 0.01 to 0.1 µM
- IC50 [3]: 0.01 to 0.1 µM
